What was measured:
HIV-2 (ROD) = experiment: Anti-HIV-2 (ROD) activity in MT-4 cells, MTT assay; format: cell-based; details: Human immunodeficiency virus 2, MT4, 50% protection against HIV-induced cytotoxicity
Experimental: (§1) II. In vitro anti-HIV Assay in MT-4 Cells
(§2) Evaluation of the antiviral activity of the compounds against HIV in MT-4 cells was performed using the MTT assay as described below. Stock solutions (10 × final concentration) of test compounds were added in 25 µL volumes to two series of triplicate wells to allow simultaneous evaluation of their effects on mock- and HIV-infected cells at the beginning of each experiment. Serial 5-fold dilutions of test compounds were made directly in flat-bottomed 96-well microtiter trays using a Biomek 3000 robot (Beckman Instruments, Fullerton, CA). Untreated HIV- and mock-infected cell samples were included as controls. HIV stock (50 µL) at 100-300 CCID50 (50 % cell culture infectious doses) or culture medium was added to either the infected or mock-infected wells of the microtiter tray. Mock-infected cells were used to evaluate the effects of the test compound on uninfected cells to assess the test compounds' cytotoxicity. Exponentially growing MT-4 cells were centrifuged for 5 minutes at 220 g, and the supernatant was discarded. […]
(§3) cells/mL, and 50 µL volumes were transferred to the microtiter tray wells. Five days after infection, the viability of mock-and HIV-infected cells was examined spectrophotometrically using the MTT assay. The MTT assay is based on the reduction of yellow colored 3-(4,5-dimethylthiazol-2-yl)-2,5-diphenyltetrazolium bromide (MTT) (Acros Organics) by mitochondrial dehydrogenase activity in metabolically active cells to a blue-purple formazan that can be measured spectrophotometrically. The absorbances were read in an eight-channel computer-controlled photometer (Infinite M1000, Tecan), at two wavelengths (540 and 690 nm). All data were calculated using the median absorbance value of three wells. […]
(§4) was defined as the concentration of the test compound that reduced the absorbance (OD540) of the mock-infected control sample by 50%. The concentration achieving 50% protection against the cytopathic effect of the virus in infected cells was defined as the […]

MT-4 cells = experiment: Cytotoxicity in mock-infected MT-4 cells, MTT assay; format: cell-based; details: 50% reduction of viability of mock-infected MT-4 cells
Experimental: (§5) II. In vitro anti-HIV Assay in MT-4 Cells […]
(§6) performed using the MTT assay as described below. Stock solutions (10 × final concentration) of test compounds were added in 25 µL volumes to two series of […]
(§7) infected cells at the beginning of each experiment. Serial 5-fold dilutions of test […]
(§8) Biomek 3000 robot (Beckman Instruments, Fullerton, CA). Untreated HIV- and mock-infected cell samples were included as controls. HIV stock (50 µL) at 100-300 CCID50 […]
(§9) or mock-infected wells of the microtiter tray. Mock-infected cells were used to evaluate […]
(§10) cytotoxicity. Exponentially growing MT-4 cells were centrifuged for 5 minutes at 220 g, and the supernatant was discarded. […]
(§11) cells/mL, and 50 µL volumes were transferred to the microtiter tray wells. Five days […]
(§12) spectrophotometrically using the MTT assay. The MTT assay is based on the reduction […]
(§13) M1000, Tecan), at two wavelengths (540 and 690 nm). All data were calculated using the median absorbance value of three wells.
(§14) (OD540) of the mock-infected control sample by 50%. The concentration achieving 50%

HIV-1 (IIIB) = experiment: microbe, parasite or virus in culture; format: cell-based; details: Human immunodeficiency virus 1, MT4, 50% protection against HIV-induced cytotoxicity, MT-4 cells, MTT
Experimental: as §1, §2, §3, §4

[1] = Cytotoxicity in mock-infected MT-4 cells, MTT assay; format: cell-based; details: human, 50% reduction of viability of mock-infected MT-4 cells
Experimental: as §5, §6, §7, §8, §9, §10, §11, §12, §13, §14

in vitro = details: both, human, plasma

Row | Compound | EC50 (HIV-2 (ROD)) | CC50 (MT-4 cells) | EC50 (HIV-1 (IIIB)) | other results
1 | COc1ccc(N(C)C(=O)[C@H](Cc2ccccc2)NC(=O)CN2CCN(C(=O)Cc3c(C)[nH]c4ccccc34)CC2=O)cc1 [7a, (S)-N-(4-methoxyphenyl)-N-methyl-2-(2-(4-(2-(2-methyl-1H-indol-3-yl)acetyl)-2-oxopiperazin-1-yl)acetamido)-3-phenylpropanamide] | 7.74 ± 0.79 µM | 108 ± 3.26 µM | 14.3 ± 0.76 µM | –
2 | COc1ccc(N(C)C(=O)[C@H](Cc2ccccc2)NC(=O)CN2CCN(C(=O)Cc3c[nH]c4ccc(OC)cc34)CC2=O)cc1 [7b, (S)-2-(2-(4-(2-(5-methoxy-1H-indol-3-yl)acetyl)-2-oxopiperazin-1-yl)acetamido)-N-(4-methoxyphenyl)-N-methyl-3-phenylpropanamide] | 16.9 ± 3.58 µM | 104 ± 3.37 µM | 14.6 ± 0.39 µM | –
3 | COc1ccc(N(C)C(=O)[C@H](Cc2ccccc2)NC(=O)CN2CCN(C(=O)Cc3c[nH]c4ccc(Br)cc34)CC2=O)cc1 [7c, (S)-2-(2-(4-(2-(5-bromo-1H-indol-3-yl)acetyl)-2-oxopiperazin-1-yl)acetamido)-N-(4-methoxyphenyl)-N-methyl-3-phenylpropanamide] | > 16.4 µM | 16.4 ± 3.44 µM | > 16.4 µM | –
4 | COc1ccc(N(C)C(=O)[C@H](Cc2ccccc2)NC(=O)CN2CCN(C(=O)Cc3c[nH]c4ccccc34)CC2=O)cc1 [7d, (S)-2-(2-(4-(2-(1H-indol-3-yl)acetyl)-2-oxopiperazin-1-yl)acetamido)-N-(4-methoxyphenyl)-N-methyl-3-phenylpropanamide] | 4.89 ± 1.39 µM | 112 ± 3.22 µM | 15 ± 0.24 µM | –
5 | COc1ccc(N(C)C(=O)[C@H](Cc2ccccc2)NC(=O)CN2CCN(C(=O)Cc3c[nH]c4ccc(O)cc34)CC2=O)cc1 [7e, (S)-2-(2-(4-(2-(5-hydroxy-1H-indol-3-yl)acetyl)-2-oxopiperazin-1-yl)acetamido)-N-(4-methoxyphenyl)-N-methyl-3-phenylpropanamide] | 186 ± 4.42 µM | – | 198 ± 9.74 µM | CC50 at 5 days [1]: > 209 µM
6 | COc1ccc(N(C)C(=O)[C@H](Cc2ccccc2)NC(=O)CN2CCN(C(=O)Cc3c[nH]c4ccc(F)cc34)CC2=O)cc1 [7f, (S)-2-(2-(4-(2-(5-fluoro-1H-indol-3-yl)acetyl)-2-oxopiperazin-1-yl)acetamido)-N-(4-methoxyphenyl)-N-methyl-3-phenylpropanamide] | 4.52 ± 0.87 µM | 90.1 ± 15.7 µM | 21.8 ± 4.81 µM | –
7 | COc1ccc(N(C)C(=O)[C@H](Cc2ccccc2)NC(=O)CN2CCN(C(=O)c3ccc(NC(C)=O)cc3)CC2=O)cc1 [7g, (S)-2-(2-(4-(4-acetamidobenzoyl)-2-oxopiperazin-1-yl)acetamido)-N-(4-methoxyphenyl)-N-methyl-3-phenylpropanamide] | 184 ± 19.3 µM | – | 203 ± 11 µM | CC50 at 5 days [1]: > 213 µM
8 | COc1ccc(N(C)C(=O)[C@H](Cc2ccccc2)NC(=O)CN2CCN(C(=O)c3ccc(NS(C)(=O)=O)cc3)CC2=O)cc1 [7h, (S)-N-(4-methoxyphenyl)-N-methyl-2-(2-(4-(4-(methylsulfonamido)benzoyl)-2-oxopiperazin-1-yl)acetamido)-3-phenylpropanamide] | > 201 µM | – | 192 ± 3.17 µM | CC50 at 5 days [1]: > 201 µM
9 | COc1ccc(N(C)C(=O)[C@H](Cc2ccccc2)NC(=O)CN2CCN(C(=O)c3ccc(NC(=O)C4CC4)cc3)CC2=O)cc1 [7i, (S)-N-(4-(4-(2-((1-((4-methoxyphenyl)(methyl)amino)-1-oxo-3-phenylpropan-2-yl)amino)-2-oxoethyl)-3-oxopiperazine-1-carbonyl)phenyl)cyclopropanecarboxamide] | 15 ± 2.27 µM | 168 ± 19.8 µM | > 168 µM | –
10 | COc1ccc(N(C)C(=O)[C@H](Cc2ccccc2)NC(=O)CN2CCN(C(=O)c3ccc(NC(=O)C(F)(F)F)cc3)CC2=O)cc1 [7j, (S)-N-(4-methoxyphenyl)-N-methyl-2-(2-(2-oxo-4-(4-(2,2,2-trifluoroacetamido)benzoyl)piperazin-1-yl)acetamido)-3-phenylpropanamide] | 15 ± 4.83 µM | – | 158 ± 6.77 µM | CC50 at 5 days [1]: > 195 µM
11 | COc1ccc(N(C)C(=O)[C@H](Cc2cc(F)cc(F)c2)NC(=O)CN2CCN(C(=O)Cc3c(C)[nH]c4ccccc34)CC2=O)cc1 [F2-7a, (S)-3-(3,5-difluorophenyl)-N-(4-methoxyphenyl)-N-methyl-2-(2-(4-(2-(2-methyl-1H-indol-3-yl)acetyl)-2-oxopiperazin-1-yl)acetamido)propenamide] | 19.7 ± 6.59 µM | 76.9 ± 20 µM | 20.8 ± 5.09 µM | –
12 | COc1ccc(N(C)C(=O)[C@H](Cc2cc(F)cc(F)c2)NC(=O)CN2CCN(C(=O)Cc3c[nH]c4ccc(OC)cc34)CC2=O)cc1 [F2-7b, (S)-3-(3,5-difluorophenyl)-2-(2-(4-(2-(5-methoxy-1H-indol-3-yl)acetyl)-2-oxopiperazin-1-yl)acetamido)-N-(4-methoxyphenyl)-N-methylpropanamide] | > 15.9 µM | 15.9 ± 3.83 µM | > 15.9 µM | –
13 | COc1ccc(N(C)C(=O)[C@H](Cc2cc(F)cc(F)c2)NC(=O)CN2CCN(C(=O)Cc3c[nH]c4ccc(Br)cc34)CC2=O)cc1 [F2-7c, (S)-2-(2-(4-(2-(5-bromo-1H-indol-3-yl)acetyl)-2-oxopiperazin-1-yl)acetamido)-3-(3,5-difluorophenyl)-N-(4-methoxyphenyl)-N-methylpropanamide] | > 3.15 µM | 3.15 ± 0.4 µM | > 3.15 µM | –
14 | COc1ccc(N(C)C(=O)[C@H](Cc2cc(F)cc(F)c2)NC(=O)CN2CCN(C(=O)Cc3c[nH]c4ccccc34)CC2=O)cc1 [F2-7d, (S)-2-(2-(4-(2-(1H-indol-3-yl)acetyl)-2-oxopiperazin-1-yl)acetamido)-3-(3,5-difluorophenyl)-N-(4-methoxyphenyl)-N-methylpropanamide] | 17.6 ± 9.14 µM | 57.8 ± 21.8 µM | 29.4 ± 7.03 µM | –
15 | COc1ccc(N(C)C(=O)[C@H](Cc2cc(F)cc(F)c2)NC(=O)CN2CCN(C(=O)Cc3c[nH]c4ccc(O)cc34)CC2=O)cc1 [F2-7e, (S)-3-(3,5-difluorophenyl)-2-(2-(4-(2-(5-hydroxy-1H-indol-3-yl)acetyl)-2-oxopiperazin-1-yl)acetamido)-N-(4-methoxyphenyl)-N-methylpropanamide] | ≥ 49.6 µM | 132 ± 33 µM | > 132 µM | –
16 | COc1ccc(N(C)C(=O)[C@H](Cc2cc(F)cc(F)c2)NC(=O)CN2CCN(C(=O)c3ccc(NC(C)=O)cc3)CC2=O)cc1 [F2-7g, (S)-2-(2-(4-(4-acetamidobenzoyl)-2-oxopiperazin-1-yl)acetamido)-3-(3,5-difluorophenyl)-N-(4-methoxyphenyl)-N-methylpropanamide] | 192 ± 4.57 µM | 196 ± 6.8 µM | 177 ± 16.6 µM | –
17 | COc1ccc(N(C)C(=O)[C@H](Cc2cc(F)cc(F)c2)NC(=O)CN2CCN(C(=O)c3ccc(NC(=O)C4CC4)cc3)CC2=O)cc1 [F2-7i, (S)-N-(4-(4-(2-((3-(3,5-difluorophenyl)-1-((4-methoxyphenyl)(methyl)amino)-1-oxopropan-2-yl)amino)-2-oxoethyl)-3-oxopiperazine-1-carbonyl)phenyl)cyclopropanecarboxamide] | 15.1 ± 0.68 µM | 88.6 ± 11.3 µM | 14.4 ± 1.31 µM | –
18 | COc1ccc(N(C)C(=O)[C@H](Cc2cc(F)cc(F)c2)NC(=O)CN2CCN(C(=O)c3ccc(NC(=O)C(F)(F)F)cc3)CC2=O)cc1 [F2-7j, (S)-3-(3,5-difluorophenyl)-N-(4-methoxyphenyl)-N-methyl-2-(2-(2-oxo-4-(4-(2,2,2-trifluoroacetamido)benzoyl)piperazin-1-yl)acetamido)propenamide] | 16.6 ± 6.13 µM | 150 ± 25.5 µM | 13.7 ± 0.7 µM | –
19 | Cc1[nH]c2ccccc2c1CC(=O)N[C@@H](Cc1ccccc1)C(=O)N(C)c1ccccc1 [PF74] | – | – | – | half-life at 2 μM (in vitro): > 289 min; remaining at 0 h, 2 μM (in vitro): 100%
20 | CC(C)[N+](C)(CCOC(=O)C1c2ccccc2Oc2ccccc21)C(C)C [Propantheline bromide] | – | – | – | half-life at 2 μM (in vitro): 11.2 min; remaining at 0 h, 2 μM (in vitro): 100%; remaining at 10 min, 2 μM (in vitro): 56.5%; remaining at 0.5 h, 2 μM (in vitro): 19.4%; remaining at 1 h, 2 μM (in vitro): 1.9%; remaining at 2 h, 2 μM (in vitro): 0.1%

From PMC9739877, “Discovery and Mechanistic Investigation of Piperazinone Phenylalanine Derivatives with Terminal Indole or Benzene Ring as Novel HIV-1 Capsid Modulators” (Molecules, 2022)
